Source: patent publication US20060269935A1, “Genetic predictor for clinical use of drugs used in the treatment of neurological conditions” (UCL Biomedica PLC, priority 2005, published 2006)
Where two headings read alike, the source gives them in different places.

Assays:
[1] = system: patients with a diagnosis of epilepsy; conditions: human, in vivo
Source text: In this study we have considered the known functional alleles *2 and *3 at the CYP2C9 gene, and the putatively functional 3435C>T polymorphism in the ABCB1 gene. As no common functional variants are known for SCN1A, we used a haplotype tagging strategy (Weale et al., Am J. Hum. Genet. 73, 551-565, 2003). […] For carbamazepine, we related variation in both SCN1A and ABCB1 to maximum dose in 425 patients. Finally, we tested for association with presence or absence of ADRs. […] In most, but not all cases the maximum dose used here will also be the maintenance dose, since starting doses tend to be lower than what is required (see discussion below).
The study was approved by the relevant institutional Ethics Committees. Patients who self-identified, or were determined by the treating physician, as being of North Western European origin with a diagnosis of epilepsy were recruited from the specialised epilepsy clinic of the National Hospital for Neurology and Neurosurgery after written informed consent was obtained. Extensive clinical data were obtained and stored in a computerized database. […]
The following clinical details were recorded whenever available: date when phenytoin/carbamazepine was started and stopped, maximum dosage reached, response and occurrence of ADRs. […]

CYP2C9*2 = CYP2C9*2 (Homo sapiens, UniProt P11712, R144C); conditions: in vitro expression; cited from earlier work
[2] = cited from earlier work; for Serum concentrations of phenytoin: single dose, healthy volunteers
CYP2C9 = CYP2C9 (Homo sapiens, UniProt P11712); conditions: estimated; cited from earlier work

Structure (SMILES) | Average dose range across genotypes [1] | Reduction in phenytoin clearance compared to *1 (CYP2C9*2) | Serum concentrations of phenytoin ([2]; *2 carriers) | Maximal elimination rates ([2]; *3 carriers compared with *1/1 patients) | Serum concentrations of phenytoin ([2]; *3 carriers) | Share of phenytoin inactivation for which CYP2C9 is responsible (CYP2C9)
O=C1NC(=O)C(c2ccccc2)(c2ccccc2)N1 [phenytoin, 5,5-diphenylhydantoin] | 127 mg | 29% reduction in | *2 carriers have increased serum | *3 carriers have significantly lower | patients(33, 34) and increased serum | up to 90%
NC(=O)N1c2ccccc2C=Cc2ccccc21 [carbamazepine, 5H-dibenz[b,f]azepine-5-carboxamide] | 230 mg | – | – | – | – | –
